Measured values reported in patent publication US20140357512A1, “HISTONE DEACETYLASE (HDAC) BIOMARKERS IN MULTIPLE MYELOMA” (priority 2013, published 2014).

Test system: human myeloma cell line MM.1S
Assay: SILAC acetylated-lysine peptide profiling, HDAC inhibitor vs DMSO (light/heavy ratio)
Assay type: cell-based
From the text: An embodiment of the invention comprises utilizing the SILAC method in order to quantitate changes in protein expression between two or more populations of cells. The SILAC method is a technique based on mass spectrometry that detects differences in protein abundance among samples using non-radioactive isotopic labeling. The SILAC method is known in the art, and described in detail in Ong et al., “Stable Isotope Labeling by Amino Acids in Cell Culture, SILAC, as a Simple and Accurate Approach to Expression Proteomics”, Molecular & Cellular Proteomics, vol. 1, pp. 376-386 (2002), which is incorporated herein by reference in its entirety.
Briefly, the SILAC method involves growing two populations of cells in cell culture. The first population of cells is grown in growth media containing normal amino acids (“normal media”). The second population of cells is grown in media lacking a standard essential amino acid (such as lysine), but is then supplemented with a non-radioactive, isotopically labeled form of that essential amino acid (such as lysine labeled with ^13C atoms, rather than normal ^12C atoms), which is called “heavy media”. When the two populations of cells are each growing in the medium, they incorporate the amino acids into all of their proteins. The growth of cells maintained in the heavy media is no different from that in normal media. All peptides containing the heavy amino acids are heavier than their normal counterparts. The cells from each of the two populations of cells are lysed. The lysates from each of the two cell populations are then combined. The combined cell lysates are then analyzed by mass spectrometry. Pairs of chemically identical peptides of different stable isotope composition can be differentiated in a mass spectrometer due to their difference in mass. The ratio of peak intensities in the mass spectrum for such peptide pairs reflects the abundance ratio for the two proteins.
This example describes SILAC studies that were performed to compare the effects of three different HDAC inhibitors (Compound A, Compound B, and tubastatin A) to a control on a human multiple myeloma cell line. The HDAC inhibitors were also compared amongst themselves to determine differences in their effects.
A human myeloma cell line MM.1S was grown using either ^12C (light) or ^13C (heavy) lysine containing culture medium. The “heavy” cells were treated with DMSO as the control, and the “light” cells were treated with a single HDAC inhibitor at 37° C. for 6 hours. The heavy and light cells were lysed, and the lysates were mixed in 1:1 ratio and digested with the protease trypsin. The acetylated lysine containing peptides (due to the action of the HDAC inhibitor) in the digested peptide pool were captured by a non-specific anti-acetylated lysine antibody cocktail (the antibodies identify both light and heavy acetylated peptides), and subjected to mass spectrometry analysis in order to identify thousands of individual peptides.
Thousands of peptides were identified in pairs (^12C and ^13C) due to their known mass differences. The amino acid sequence and quantitative ratio (Light/Heavy) of a given peptide in two differentially treated cell lysates were then determined and annotated with their possible protein (gene) sources.
As stated above, three HDAC inhibitors (Compound A, Compound B, and Tubastatin A) were used. Thus, the SILAC method was performed three times, with a different HDAC inhibitor compared to a control each time. Accordingly, there are three pairs of quantitative data in the table below, i.e., Compound A:DMSO, Compound B:DMSO, and Tubastatin A:DMSO. A cut-off of 1.30 fold of change (increase or decrease) was then used to determine “changed” or “+” in the table, and any peptides with a fold of change less than 1.3 fold were determined to be “unchanged” or “0” in the table. Those peptides that were not identified were marked as “NA” in the table. […]

## O=C(CCCCCCNC(=O)c1cnc(N(c2ccccc2)c2ccccc2)nc1)NO [Compound A, 2-(diphenylamino)-N-(7-(hydroxyamino)-7-oxoheptyl)pyrimidine-5-carboxamide]
VDAC3 [12], log 2 scale, drug vs DMSO
  L/H ratio of acetylated peptide (ac)[…](ac)AAK (SEQ ID NO: 6): 0.00
VDAC3 [63], log 2 scale, drug vs DMSO
  L/H ratio of acetylated peptide YK(ac)[…] (SEQ ID NO: 117): 0.00
VGIVGK(ac)YGTR (SEQ ID NO: 250), 60S ribosomal protein L37a [13], RPL37A
  light to heavy ratio (L/H ratio) of acetylated peptide, log 2 scale: −0.44
VIM [104], log 2 scale, drug vs DMSO
  L/H ratio of acetylated peptide TNEK(ac)VELQELNDR (SEQ ID NO: 122): 0.00
VIM [120], log 2 scale, drug vs DMSO
  L/H ratio of acetylated peptide FANYIDK(ac)VR (SEQ ID NO: 118): 0.00
VIM [139], log 2 scale, drug vs DMSO
  L/H ratio of acetylated peptide […](ac)GQGK (SEQ ID NO: 119): 0.00
VIM [294], log 2 scale, drug vs DMSO
  L/H ratio of acetylated peptide SK(ac)[…] (SEQ ID NO: 121): 0.00
VIM [373], log 2 scale, drug vs DMSO
  L/H ratio of acetylated peptide LQDEIQNMK(ac)EEMAR (SEQ ID NO: 120): 0.00
Vesicle-trafficking protein SEC22b [38], SEC22B, drug:DMSO
  light to heavy ratio (L/H ratio) of acetylated peptide […](ac)QLFR (SEQ ID NO: 321): 1.00 log 2
Vimentin [188], gene VIM, drug:DMSO
  light to heavy ratio (L/H ratio), log 2 scale, acetylated peptide EK(ac)LQEEMLQR (SEQ ID NO: 762): 0.92
Vimentin [445], VIM, drug:DMSO
  light to heavy ratio (L/H ratio) of acetylated peptide TLLIK(ac)TVETR (SEQ ID NO: 269): 0.45 log 2
X-ray repair cross-complementing protein 5 [265], gene XRCC5, inhibitor:DMSO
  light to heavy ratio (L/H ratio) of acetylated peptide IAAYK(ac)SILQER (SEQ ID NO: 531): −0.41 log 2
X-ray repair cross-complementing protein 5 [648], gene XRCC5, inhibitor:DMSO
  light to heavy ratio (L/H ratio) of acetylated peptide EEAIK(ac)FSEEQR (SEQ ID NO: 509): −0.60 log 2
X-ray repair cross-complementing protein 5 [660], gene XRCC5, inhibitor:DMSO
  light to heavy ratio (L/H ratio) of acetylated peptide FNNFLK(ac)ALQEK (SEQ ID NO: 545): 0.39 log 2
X-ray repair cross-complementing protein 6 [605], XRCC6, drug:DMSO
  light to heavy ratio (L/H ratio) of acetylated peptide […](ac)HFQD (SEQ ID NO: 355): 0.00 log 2
XRCC5 [665], log 2 scale, drug vs DMSO
  L/H ratio of acetylated peptide ALQEK(ac)VEIK (SEQ ID NO: 123): 0.00
YNCDK(ac)MICR (SEQ ID NO: 254), Ubiquitin-605 ribosomal protein L40 [93], UBA52
  light to heavy ratio (L/H ratio) of acetylated peptide, log 2 scale: 0.38
[3-methyl-2-oxobutanoate dehydrogenase [lipoamide]] kinase mitochondrial [192], BCKDK, drug:DMSO
  light to heavy ratio (L/H ratio) of acetylated peptide YFLDK(ac)TLTSR (SEQ ID NO: 293): 0.68 log 2
[…](ac)MVAAK (SEQ ID NO: 491), Cyclic AMP-dependent transcription factor ATF-4 [267], ATF4
  L/H ratio of acetylated peptide: −1.00 log 2
[…](ac)YPLR (SEQ ID NO: 493), Isoform 1 of NADH-cytochrome b5 reductase 3 [42], CYB5R3
  L/H ratio of acetylated peptide: −1.00 log 2
Annexin A4 [255], ANXA4, drug:DMSO
  light to heavy ratio (L/H ratio) of acetylated peptide SAYFAEK(ac)LYK (SEQ ID NO: 292): 0.67 log 2
cDNA FLJ45706 fis clone FEBRA2028457 highly similar to Nucleolin [470], gene NCL, inhibitor:DMSO
  light to heavy ratio (L/H ratio) of acetylated peptide TLFVK(ac)[…] (SEQ ID NO: 511): −0.59 log 2
cDNA FLJ55380 highly similar to Protein kinase C-binding protein 1 [440], ZMYND8, drug:DMSO
  light to heavy ratio (L/H ratio) of acetylated peptide ILMSK(ac)PVLSGGTGR (SEQ ID NO: 291): 0.67 log 2
cDNA FLJ55574 highly similar to Calnexin [138], CANX, drug:DMSO
  light to heavy ratio (L/H ratio) of acetylated peptide YDGK(ac)WEVEEMK (SEQ ID NO: 274): 0.48 log 2
cDNA FLJ55574 highly similar to Calnexin [172], CANX, drug:DMSO
  light to heavy ratio (L/H ratio) of acetylated peptide LNK(ac)PFLFDTK (SEQ ID NO: 327): 0.00 log 2
cDNA FLJ56047 highly similar to A kinase anchor protein 1 mitochondrial [667], gene AKAP1, inhibitor:DMSO
  light to heavy ratio (L/H ratio) of acetylated peptide LIGK(ac)QGR (SEQ ID NO: 629): 0.49 log 2
cDNA FLJ56303 highly similar to Translocon-associated protein subunit beta [46], SSR2, drug:DMSO
  light to heavy ratio (L/H ratio) of acetylated peptide LLASK(ac)SLLNR (SEQ ID NO: 322): 1.00 log 2
cDNA FLJ75110 highly similar to Homo sapiens PHD finger protein 15 (PHF15) mRNA [38], gene PHF15, inhibitor:DMSO
  light to heavy ratio (L/H ratio) of acetylated peptide LPSSTK(ac)SGWPR (SEQ ID NO: 500): −0.78 log 2
cDNA FLJ77177 highly similar to Homo sapiens arginine-rich mutated in early stage tumors (ARMET) mRNA [97], MANF, drug:DMSO
  light to heavy ratio (L/H ratio) of acetylated peptide IINEVSK(ac)[…] (SEQ ID NO: 341): 0.00 log 2
cDNA FLJ77422 highly similar to Homo sapiens RNA binding protein autoantigenic (hnRNP-associated with lethal yellow homolog (mouse)) transcript variant 1 mRNA (Fragment) [165], RALY, drug:DMSO
  light to heavy ratio (L/H ratio) of acetylated peptide TNVPVK(ac)LFAR (SEQ ID NO: 348): 0.00 log 2
Histone cluster 2 H3 pseudogene 2 [80], HIST2H3PS2, drug:DMSO
  light to heavy ratio (L/H ratio) of acetylated peptide EIAQEFK(ac)TDLR (SEQ ID NO: 337): 0.00 log 2
membrane-associated progesterone receptor component 2 [159], PGRMC2, drug:DMSO
  light to heavy ratio (L/H ratio) of acetylated peptide GSK(ac)[…] (SEQ ID NO: 265): 0.43 log 2
Pyruvate dehydrogenase E1 component subunit alpha somatic form mitochondrial isoform 2 precursor [351], PDHA1, drug:DMSO
  light to heavy ratio (L/H ratio) of acetylated peptide SK(ac)SDPIMLLK (SEQ ID NO: 255): 0.39 log 2
Regulator of differentiation 1 isoform 2 [64], ROD1, drug:DMSO
  light to heavy ratio (L/H ratio) of acetylated peptide VTNLLMLK(ac)GK (SEQ ID NO: 350): 0.00 log 2
Regulator of differentiation 1 isoform 2 [236], gene ROD1, inhibitor:DMSO
  light to heavy ratio (L/H ratio) of acetylated peptide LTSLNVK(ac)YNNDK (SEQ ID NO: 590): 0.44 log 2
Triosephosphate isomerase isoform 2 [231], TPI1, TPI1P1, drug:DMSO
  light to heavy ratio (L/H ratio) of acetylated peptide GWLK(ac)[…] (SEQ ID NO: 278): 0.54 log 2
